In one data set the target is T1, AT1 receptor (Rattus norvegicus, UniProt P25095).
T1 construct: Rat liver membranes were prepared according to the method of Dudley et al; from tissue; host or cells: rat liver membranes
As to the kind of experiment: Rat liver membrane AT1 receptor binding assay ([125I]-Ang II displacement). The settings on record: displacement of [125I]-Ang II, rat liver membranes; means ± SE, triplicate; read-out: Ki (nM) AT1R. Here is the method:
The target compounds were evaluated for AT1 receptor binding affinity by displacement of [^125I]-Ang II from the AT1 receptor in rat liver membranes. The radio-iodinated AT2 receptor selective ligand [^125I]-CGP42112 was used to study AT2 receptor binding affinity in HEK-293 cells (HEK293-hAT2R) ([Dudley et al., 1990]; [Whitebread et al., 1991]). All of above methods were widely accepted and used to evaluate the binding activity of AT1 and AT2 receptors.
Rat liver membranes were prepared according to the method of Dudley et al ([Dudley et al., 1990]). After HEK-293 cells were transfected with the AT2 receptor, a lysis buffer was used to separate the cell membrane of HEK-293 cells ([Grieger et al., 2016]), using 27-G Resuspend. The lysis solution was mixed and centrifuged at 12,000 g for 10 min at 4°C. Details are shown in the Supplementary Material.
3. Radioligand binding assay steps
3.1 Rat Liver Membrane AT1 Receptor Binding Assay.
Rat liver membranes were prepared according to the method of Dudley et al[1].
Binding of [125I]-Ang II to membranes was conducted in a final volume of 0.5 mL containing 50 mM Tris-HCl (pH 7.4), 100 mM NaCl, 10 mM MgCl2, 1 mM EDTA, 0.025% bacitracin, 0.2% BSA (bovine serum albumin), liver homogenate corresponding to 5 mg of the original tissue weight, [125I]-Ang II (80000-85 000 cpm, 0.03 nM), and variable concentrations of test substance. Samples were incubated at 25 ℃ for 2 h, and binding was terminated by filtration through Whatman GF/B glass-fiber filter sheets, which had been presoaked overnight with 0.3 % polyethylamine, using a Brandel cell harvester. The filterswere washed with 3×3 mL of Tris-HCl (pH 7.4) and transferred to tubes. The radioactivity was measured in a γ-counter. The characteristics of the Ang II binding AT1receptor was determined by using six different concentrations (0.03-5 nmol/L) of the labeled [125I]-Ang II.
Nonspecific binding was determined in the presence of 1 µM Ang II.The specific binding was determined by subtracting the nonspecific binding from the total bound [125I]-Ang II.The apparent dissociation constant Ki values were calculated from IC50 values using the Cheng-Prusoff equation. […]
(§1) one-site fit.All determinations were performed in triplicate. […]
On the technique in general: Displacement assays read how much labelled ligand stays bound in the presence of the test substance.

Data set [1] concerns the target T2, AT2 receptor (Homo sapiens, UniProt P50052).
T2 construct: expressed in transfected cells; host or cells: HEK-293
T2 sequence (P50052 1-363): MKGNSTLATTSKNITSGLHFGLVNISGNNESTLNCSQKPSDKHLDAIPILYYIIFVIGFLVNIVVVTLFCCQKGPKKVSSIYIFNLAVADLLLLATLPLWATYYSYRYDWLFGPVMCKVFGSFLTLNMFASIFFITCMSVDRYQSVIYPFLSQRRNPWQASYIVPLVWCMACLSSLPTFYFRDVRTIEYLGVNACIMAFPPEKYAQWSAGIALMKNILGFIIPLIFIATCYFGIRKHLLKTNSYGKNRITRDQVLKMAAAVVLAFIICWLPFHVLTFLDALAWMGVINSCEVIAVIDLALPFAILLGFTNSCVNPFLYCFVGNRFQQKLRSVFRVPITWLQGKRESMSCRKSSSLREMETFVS
As to the kind of experiment: HEK-293 cell AT2 receptor binding assay ([125I]-CGP42112 displacement, HEK293-hAT2R). The procedure:
All of above methods were widely accepted and used to evaluate the binding activity of AT1 and AT2 receptors.
The lysis solution was mixed and centrifuged at 12,000 g for 10 min at 4°C. Details are shown in the Supplementary Material.
After HEK-293 cells were transfected with AT2 receptor, lysis buffer (150 mM NaCl, 0.1% Triton X-100, 50 mM Tris-HCl, 1 mM EDTA, protease inhibitor) was used to separate the cell membrane of HEK-293 cells[2],using 27-G Resuspend and mix the lysis solution, and centrifuge at 12,000 g for 10 minutes at 4 °C. The supernatant was collected and centrifuged for a further 60 minutes. The precipitated membrane extracts were buffered (150 mM NaCl, 10 mM MgCl2, 0.5 % SDS, 1 % Triton X-100, 50 mM Tris-Cl, 1 mM EDTA, protease inhibitor ) for resuspension. […]
mL containing 50 mM Tris-HCl (pH 7.4), 100 mM NaCl, 10 mM MgCl2, 1 mM […]
cpm, 0.03 nM), and variable concentrations of test substance. Samples were incubated at 25 ℃ for 2 h, and binding was terminated by filtration through Whatman GF/B glass-fiber filter sheets, which had been presoaked overnight with 0.3 % polyethylamine, using a Brandel cell harvester. The filterswere washed with 3×3 mL of Tris-HCl (pH 7.4) and transferred to tubes. The radioactivity was measured in a γ-counter. The characteristics of the Ang II binding AT1 receptor was determined by […]
Nonspecific binding was determined in the presence of 1 µM Ang II.The specific binding was determined by subtracting the nonspecific binding from the total bound The apparent dissociation constant Ki values were calculated from IC50 values using the Cheng-Prusoff equation. […]
as §1

Data set [2] deals with AT2 receptor. The data set is described as follows: Neurite outgrowth assay with NG108-15 cells (AT2 receptor function assay). The conditions noted are these: for Function (AT2 receptor agonist / antagonist): 3-day treatment, 10 or 100 nM, with or without PD-123,319 (10 uM) or Ang II; for evidence of cell death: dilution series 1 pM to 1 uM, seen only at the highest concentration. The procedure: The ratio of cell neurite outgrowth was used to evaluate, and the details are shown in the Supplementary Material.
NG108-15 cells (China Center for Type Culture Collection CCTCC) were used to study the in vitro morphological effects. In their undifferentiated state, neuroblastoma × glioma hybrid NG108-15 cells havea rounded shape and divide actively. The cells were cultured from passage 18–25 in Dulbecco’s modified Eagle’s medium (DMEM, Gibco BRL, Thermo Fisher Technology (China) Co., Ltd, China) with 10% fetal bovine serum (FBS, Gibco), HAT supplement and 50 mg L^−1 gentamycin at 37°C in 75 cm^2 Nunclon Delta flasks in a humidified atmosphere of 95% air and 5% CO2, as previously described ([Buisson et al., 1992]). Subcultures were performed at subconfluency. Under these conditions, cells express mainly the AT2 receptor subtype ([Whitebread et al., 1991]). Cells were treated during 3 days, once a day (first treatment 24 h after plating), and micrographs were taken on the fourth day. The details of experimental grouping and administration method are shown in the Supplementary Material. […]
4. NG108-15 cell experiment steps […]
peptidic AT2 receptor agonist CGP-42112A induces neurite outgrowth. The […]
plated as described in the Experimental Section, and adequate test concentrations for […]
each compound were determined by testing a dilution series of each compound […]
ranging from 1 pM to 1 uM.
The chemicals used in the present study were obtained from the following sources: Dulbecco’s modified Eagle’s medium (DMEM), heat-inactivated fetal bovine serum (FBS), HAT supplement (hypoxanthine, aminopterin, thymidine), gentamycin from Gibco BRL (Burlington, Ontario, Canada), and Ang II from MedChemExpress

For a further data set, the target named is AT2R. The settings on record: Figure 5, tetrahydroisoquinoline antagonists, ref Smith et al., 2013, Rice et al., 2014, Smith and Muralidharan, 2015, 2016; cited from earlier work.

“Also recorded” adds a separate entry of the source.

T1 sequence (P25095 whole entry): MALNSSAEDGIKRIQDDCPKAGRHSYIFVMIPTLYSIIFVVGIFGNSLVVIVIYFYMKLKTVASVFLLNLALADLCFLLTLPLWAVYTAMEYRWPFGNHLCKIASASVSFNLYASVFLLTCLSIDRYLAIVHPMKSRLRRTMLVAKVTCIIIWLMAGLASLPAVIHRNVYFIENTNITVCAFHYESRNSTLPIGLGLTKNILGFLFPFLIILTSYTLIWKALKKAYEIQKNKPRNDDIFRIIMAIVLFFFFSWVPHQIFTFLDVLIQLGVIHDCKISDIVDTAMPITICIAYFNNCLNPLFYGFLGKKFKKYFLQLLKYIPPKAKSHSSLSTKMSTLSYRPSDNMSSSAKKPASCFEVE

Usually Ki stands for a dissociation constant, usually derived from enzyme kinetics or from competition with a known ligand. `CC(C)Cc1ccc(S(=O)(=O)NC(=O)OC(C)C)c(-c2cccc(Cn3cncn3)c2)c1` [8d, Isopropyl((3’-((1H-1,2,4-triazol-1-yl)methyl)-5-isobutyl-[1,1′-biphenyl]-2-yl)sulfonyl)carbamate]: the Ki on AT1 receptor amounted to 1786 ± 1.37 nM. For the same compound, the Ki on AT2 receptor [1] stood at 116 ± 1.18 nM. In addition, in the data set on AT2 receptor [2], the “Function (AT2 receptor agonist / antagonist)” value is recorded as “antagonistic activity; also recorded: antagonist activity” and the “evidence of cell death” value was “evidence of cell death”.
For `CCCCc1ccc(S(=O)(=O)NC(=O)OC(C)C)c(-c2cccc(Cn3cncn3)c2)c1` [8h, Isopropyl((3'-((1H-1,2,4-triazol-1-yl)methyl)-5-butyl-[1,1′-biphenyl]-2-yl)sulfonyl)carbamate] the same measures were 1505 ± 1.11 nM, 82.9 ± 1.19 nM, “antagonistic activity; also recorded: antagonist activity” and “evidence of cell death”.
Turning to `CCCCOc1ccc(S(=O)(=O)NC(=O)CCCC)c(-c2cccc(Cn3cncn3)c2)c1` [8i, N-((3'-((1H-1,2,4-triazol-1-yl)methyl)-5-butoxy-[1,1′-biphenyl]-2-yl)sulfonyl)pentanamide], the Ki at AT1 receptor is 1250 ± 1.12 nM; on AT2 receptor [1], 199.6 ± 1.17 nM. Besides, the “Function (AT2 receptor agonist / antagonist)” value with AT2 receptor [2] was “antagonistic activity; also recorded: AT2R antagonist; also recorded: antagonist activity”.
Regarding `CCCCOC(=O)NS(=O)(=O)c1ccc(OCCCC)cc1-c1cccc(Cn2cncn2)c1` [8j, Butyl((3'-((1H-1,2,4-triazol-1-yl)methyl)-5-butoxy-[1,1′-biphenyl]-2-yl)sulfonyl)carbamate], the values for the Ki at AT1 receptor and at AT2 receptor [1] were 889.3 ± 1.24 nM and 620.1 ± 1.27 nM, respectively. For the same compound, the “Function (AT2 receptor agonist / antagonist)” value in the data set on AT2 receptor [2] is recorded as “agonistic activity; also recorded: agonist activity; also recorded: AT2R agonist”.
With `CCCCOc1ccc(S(=O)(=O)NC(=O)OCC(C)C)c(-c2cccc(Cn3cncn3)c2)c1` [8k, Isobutyl((3'-((1H-1,2,4-triazol-1-yl)methyl)-5-butoxy-[1,1′-biphenyl]-2-yl)sulfonyl)carbamate], the values for the Ki at AT1 receptor and on AT2 receptor [1] were 775 ± 1.08 nM and 712.5 ± 1.17 nM, respectively. For the same compound, the “Function (AT2 receptor agonist / antagonist)” value with AT2 receptor [2] is listed as “antagonistic activity; also recorded: AT2R antagonist; also recorded: antagonist activity”.
Taken in the same sequence, the figures for `CCCCOc1ccc(S(=O)(=O)NC(=O)OC(C)C)c(-c2cccc(Cn3cncn3)c2)c1` [8l, Isopropyl((3'-((1H-1,2,4-triazol-1-yl)methyl)-5-butoxy-[1,1′-biphenyl]-2-yl)sulfonyl)carbamate] were 2005 ± 1.16 nM, 56.6 ± 1.16 nM and “antagonistic activity; also recorded: AT2R antagonist; also recorded: antagonist activity”.
On to `CCCCc1ccc(S(=O)(=O)NC(=O)OC(C)C)c(-c2cccc(Cn3cccn3)c2)c1` [9h, Isopropyl((3'-((1H-pyrazol-1-yl)methyl)-5-butyl-[1,1′-biphenyl]-2-yl)sulfonyl)carbamate], for which the inhibition constant Ki on AT1 receptor was 1723 ± 1.07 nM; on AT2 receptor [1], 138 ± 1.34 nM. In the data set on AT2 receptor [2], the “Function (AT2 receptor agonist / antagonist)” value is reported as “antagonistic activity; also recorded: Antagonist”.
`COc1ccc(Cn2cnc3c2C[C@@H](C(=O)O)N(C(=O)C(c2ccccc2)c2ccccc2)C3)cc1C` [EMA300]: at AT2R, the inhibition constant Ki was 28 nM.

The values are drawn from PMC9458978, “Design, synthesis and biological evaluation of novel biphenylsulfonamide derivatives as selective AT2 receptor antagonists” (Frontiers in Chemistry, 2022).
